For two compounds, molar enthalpy results are on record in the NIST ThermoML archive (doi:10.1016/j.jct.2012.08.018).

Numbers after ± are expanded uncertainties.

The data set is described as follows: molar enthalpy of vaporization or sublimation. The conditions noted are these: 298.15 K; Crystal; Static calorimetry.

Take `COC(N)=O` [carbamic acid, methyl ester]: the molar enthalpy worked out at 17.6 ± 0.311 kcal/mol.
For the compound `CCOC(N)=O` [ethyl carbamate], the molar enthalpy came to 18.6 ± 0.335 kcal/mol.
